The source of these data is patent US10793580B2, “Substituted pyrazoloazepin-8-ones and their use as phosphodiesterase inhibitors” (LEO Pharma A/S, priority 2016, dated 2020).

Where only a bound is given, the exact number is not on record here.

human PDE4D catalytic domain, sequence (Q08499 380-740): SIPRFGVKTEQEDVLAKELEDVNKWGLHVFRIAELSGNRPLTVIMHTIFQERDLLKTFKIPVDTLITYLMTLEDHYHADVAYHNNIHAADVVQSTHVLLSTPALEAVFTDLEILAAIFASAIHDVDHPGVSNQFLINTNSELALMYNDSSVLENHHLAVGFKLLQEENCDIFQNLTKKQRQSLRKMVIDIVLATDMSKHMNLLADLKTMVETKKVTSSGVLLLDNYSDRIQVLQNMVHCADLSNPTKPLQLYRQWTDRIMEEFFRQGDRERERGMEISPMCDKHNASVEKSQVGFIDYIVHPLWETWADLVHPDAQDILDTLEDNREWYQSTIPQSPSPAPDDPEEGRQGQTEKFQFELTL

The first assay addresses human PDE4D catalytic domain (Homo sapiens (Human), UniProt Q08499). The assay is described as follows: PDE4 Assay (TR-FRET, FAM-cAMP cleavage). It counts as biochemical. To be noted: Table 16, Examples 277-296; read-out: PDE4 IC50 range. The method, boiled down: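 Readout is Tb-to-FAM time-resolved FRET after nanoparticle capture of AMP, the product of cleaving a cAMP/FAM-cAMP mixture by PDE4D catalytic domain (S380-L740) in the presence of titrated compound. Values are IC50 ranges in nM: concentration halving substrate cleavage relative to controls.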
Background: TR-FRET usually uses a lanthanide donor and a delayed reading to cut background.
The term IC50 denotes the midpoint of a concentration-inhibition curve. In the case of `CCn1nc(C[C@@H](C)COC(=O)c2csc(C)n2)c2c1C(=O)NCC1(CCOCC1)C2` [Example 290, [(2R)-3-(1-ethyl-8-oxo-spiro[6,7-dihydro-4H-pyrazolo[3,4-c]azepine-5,4′-tetrahydropyran]-3-yl)-2-methyl-propyl] 2-methylthiazole-4-carboxylate], the IC50 is under 0.1 µM.

Still in this assay, the particulars now being: Table 17, Examples 297-316; read-out: PDE4 IC50 range.
With `CCn1nc(CC(C)(C)COC(=O)c2ccns2)c2c1C(=O)NCC1(CCOCC1)C2` [Example 303, [3-(1-ethyl-8-oxo-spiro[6,7-dihydro-4H-pyrazolo[3,4-c]azepine-5,4′-tetrahydro-pyran]-3-yl)-2,2-dimethyl-propyl] isothiazole-5-carboxylate], the IC50 was under 0.1 µM. Still for that read-out and setting: as for `CCn1nc(CC(C)(C)COC(=O)c2cscn2)c2c1C(=O)NCC1(CCOCC1)C2` [Example 305, [3-(1-ethyl-8-oxo-spiro[6,7-dihydro-4H-pyrazolo[3,4-c]azepine-5,4′-tetrahydro-pyran]-3-yl)-2,2-dimethyl-propyl] thiazole-4-carboxylate], the figure is under 0.1 µM.

The assay is the same for the next values; noted with them: human PDE4D catalytic domain (UniProt Q08499 [S380-L740]); 50% inhibition of substrate cleavage; read-out: PDE4 IC50 range.
For the compound `CCn1nc(CCCOC(=O)c2cccc(C(N)=O)c2)c2c1C(=O)NCC1(CCOCC1)C2` [Example 113, 3-(1-ethyl-8-oxo-spiro[6,7-dihydro-4H-pyrazolo[3,4-c]azepine-5,4′-tetrahydropyran]-3-yl)propyl 3-carbamoylbenzoate], the IC50 was under 0.1 µM. On the same count and under the same terms, as for `CCn1nc(CCCOC(=O)c2cccc(S(=O)(=O)C(C)C)c2)c2c1C(=O)NCC1(CCOCC1)C2` [Example 92, 3-(1-ethyl-8-oxo-spiro[6,7-dihydro-4H-pyrazolo[3,4-c]azepine-5,4′-tetrahydropyran]-3-yl)propyl 3-isopropylsulfonylbenzoate], the figure is under 0.1 µM; as for `CCn1nc(C[C@@H](C)COC(=O)c2ccc(S(=O)(=O)N3CCN(C(C)=O)CC3)cc2)c2c1C(=O)NCC1(CCOCC1)C2` [Example 167, [(2R)-3-(1-ethyl-8-oxo-spiro[6,7-dihydro-4H-pyrazolo[3,4-c]azepine-5,4′-tetrahydropyran]-3-yl)-2-methyl-propyl] 4-(4-acetylpiperazin-1-yl)sulfonylbenzoate], under 0.1 µM; as for `CCn1nc(CC(C)(C)COC(=O)c2ccccc2F)c2c1C(=O)NCC1(CCOCC1)C2` [Example 193, [3-(1-ethyl-8-oxo-spiro[6,7-dihydro-4H-pyrazolo[3,4-c]azepine-5,4′-tetrahydropyran]-3-yl)-2,2-dimethyl-propyl] 2-fluorobenzoate], under 0.1 µM. As for `CCn1nc(CCCOC(=O)c2ccc(C)c(C)c2)c2c1C(=O)NCC1(CCOCC1)C2` [Example 13, 3-(1-ethyl-8-oxo-spiro[6,7-dihydro-4H-pyrazolo[3,4-c]azepine-5,4′-tetrahydropyran]-3-yl) propyl 3,4-dimethylbenzoate], the IC50 is under 0.1 µM. The same measure, in the same setting: as for `CCn1nc(C[C@@H](C)COC(=O)c2ccc(C)cc2)c2c1C(=O)NCC1(CCOCC1)C2` [Example 140, [(2R)-3-(1-ethyl-8-oxo-spiro[6,7-dihydro-4H-pyrazolo[3,4-c]azepine-5,4′-tetrahydropyran]-3-yl)-2-methyl-propyl] 4-methylbenzoate], the figure is under 0.1 µM. In the case of `CCn1nc(CCCOC(=O)c2cn(C)cn2)c2c1C(=O)NCC1(CCOCC1)C2` [Example 239, 3-(1-ethyl-8-oxo-spiro[6,7-dihydro-4H-pyrazolo[3,4-c]azepine-5,4′-tetrahydropyran]-3-yl)propyl 1-methylimidazole-4-carboxylate], the IC50 is under 0.1 µM.

Consider `CCn1nc(CCCOC(=O)c2cc(F)cc(Cl)c2)c2c1C(=O)NCC1(CCOCC1)C2` [Example 47, 3-(1-ethyl-8-oxo-spiro[6,7-dihydro-4H-pyrazolo[3,4-c]azepine-5,4′-tetrahydropyran]-3-yl)propyl 3-chloro-5-fluoro-benzoate], for which the IC50 is under 0.1 µM. The same measure, in the same setting: under `CCn1nc(C[C@@H](C)COC(=O)c2ccc(C(=O)N3CCCCC3)cc2)c2c1C(=O)NCC1(CCOCC1)C2` [Example 173, [(2R)-3-(1-ethyl-8-oxo-spiro[6,7-dihydro-4H-pyrazolo[3,4-c]azepine-5,4′-tetrahydropyran]-3-yl)-2-methyl-propyl] 4-(piperidine-1-carbonyl)benzoate] stands under 0.1 µM; under `CCn1nc(C[C@@H](C)COC(=O)c2cccc(C)c2)c2c1C(=O)NCC1(CCOCC1)C2` [Example 142, [(2R)-3-(1-ethyl-8-oxo-spiro[6,7-dihydro-4H-pyrazolo[3,4-c]azepine-5,4′-tetrahydropyran]-3-yl)-2-methyl-propyl] 3-methylbenzoate], under 0.1 µM. The same measure, in the same setting: as for `CCn1nc(CC(C)(C)COC(=O)c2cccc(C(=O)N3CCOCC3)c2)c2c1C(=O)NCC1(CCOCC1)C2` [Example 232, [3-(1-ethyl-8-oxo-spiro[6,7-dihydro-4H-pyrazolo[3,4-c]azepine-5,4′-tetrahydro-pyran]-3-yl)-2,2-dimethyl-propyl] 3-(morpholine-4-carbonyl)benzoate], the figure is under 0.1 µM; as for `CCn1nc(CC(C)(C)COC(=O)c2cccc(S(=O)(=O)N3CCOCC3)c2)c2c1C(=O)NCC1(CCOCC1)C2` [Example 212, [3-(1-ethyl-8-oxo-spiro[6,7-dihydro-4H-pyrazolo[3,4-c]azepine-5,4′-tetrahydropyran]-3-yl)-2,2-dimethyl-propyl] 3-morpholinosulfonylbenzoate], under 0.1 µM; as for `CCn1nc(CCCOC(=O)c2ccc(S(=O)(=O)C3CCCC3)cc2)c2c1C(=O)NCC1(CCOCC1)C2` [Example 94, 3-(1-ethyl-8-oxo-spiro[6,7-dihydro-4H-pyrazolo[3,4-c]azepine-5,4′-tetrahydropyran]-3-yl)propyl 4-cyclopentylsulfonylbenzoate], under 0.1 µM. On the same count and under the same terms, under `CCn1nc(CCCOC(=O)c2ccc(C(F)(F)F)c(F)c2)c2c1C(=O)NCC1(CCOCC1)C2` [Example 75, 3-(1-ethyl-8-oxo-spiro[6,7-dihydro-4H-pyrazolo[3,4-c]azepine-5,4′-tetrahydro-pyran]-3-yl)propyl 3-fluoro-4-(trifluoromethyl)benzoate] stands under 0.1 µM; under `CCn1nc(C[C@@H](C)COC(=O)c2ccc(S(=O)(=O)N3CCOCC3)cc2)c2c1C(=O)NCC1(CCOCC1)C2` [Example 165, [(2R)-3-(1-ethyl-8-oxo-spiro[6,7-dihydro-4H-pyrazolo[3,4-c]azepine-5,4′-tetrahydropyran]-3-yl)-2-methyl-propyl] 4-morpholinosulfonylbenzoate], under 0.1 µM.

Consider `CCn1nc(CCCOC(=O)c2ccc(F)c(Cl)c2)c2c1C(=O)NCC1(CCOCC1)C2` [Example 54, 3-(1-ethyl-8-oxo-spiro[6,7-dihydro-4H-pyrazolo[3,4-c]azepine-5,4′-tetrahydropyran]-3-yl)propyl 3-chloro-4-fluoro-benzoate], for which the IC50 is under 0.1 µM. Regarding `CCn1nc(CC(C)(C)COC(=O)c2cccc(C(=O)NC)c2)c2c1C(=O)NCC1(CCOCC1)C2` [Example 228, [3-(1-ethyl-8-oxo-spiro[6,7-dihydro-4H-pyrazolo[3,4-c]azepine-5,4′-tetrahydropyran]-3-yl)-2,2-dimethyl-propyl] 3-(methylcarbamoyl)benzoate], the IC50 is under 0.1 µM. The same measure, in the same setting: under `CCn1nc(CC(C)(C)COC(=O)c2ccccc2C)c2c1C(=O)NCC1(CCOCC1)C2` [Example 189, [3-(1-ethyl-8-oxo-spiro[6,7-dihydro-4H-pyrazolo[3,4-c]azepine-5,4′-tetrahydropyran]-3-yl)-2,2-dimethyl-propyl] 2-methylbenzoate] stands under 0.1 µM; under `CCn1nc(CCCCOC(=O)c2ccc(C(=O)N3CCOCC3)cc2)c2c1C(=O)NCC1(CCOCC1)C2` [Example 133, 4-(1-ethyl-8-oxo-spiro[6,7-dihydro-4H-pyrazolo[3,4-c]azepine-5,4′-tetrahydropyran]-3-yl)butyl 4-(morpholine-4-carbonyl)benzoate], under 0.1 µM. On the same count and under the same terms, under `CCn1nc(CCCOC(=O)c2ccc(OC)c(C)c2)c2c1C(=O)NCC1(CCOCC1)C2` [Example 33, 3-(1-ethyl-8-oxo-spiro[6,7-dihydro-4H-pyrazolo[3,4-c]azepine-5,4′-tetrahydropyran]-3-yl)propyl 4-methoxy-3-methyl-benzoate] stands under 0.1 µM; under `CCn1nc(CCCOC(=O)C2CCS(=O)(=O)CC2)c2c1C(=O)NCC1(CCOCC1)C2` [Example 262, 3-(1-ethyl-8-oxo-spiro[6,7-dihydro-4H-pyrazolo[3,4-c]azepine-5,4′-tetrahydro-pyran]-3-yl)propyl 1,1-dioxothiane-4-carboxylate], under 0.1 µM; under `CCn1nc(CCCOC(=O)c2ccc(C)cc2)c2c1C(=O)NCC1(CCOCC1)C2` [Example 8, 3-(1-ethyl-8-oxo-spiro[6,7-dihydro-4H-pyrazolo[3,4-c]azepine-5,4′-tetrahydropyran]-3-yl)propyl 4-methylbenzoate], under 0.1 µM.

As to `CCn1nc(CCCOC(=O)C2CCN(C(=O)N(C)C)CC2)c2c1C(=O)NCC1(CCOCC1)C2` [Example 264, 3-(1-ethyl-8-oxo-spiro[6,7-dihydro-4H-pyrazolo[3,4-c]azepine-5,4′-tetrahydro-pyran]-3-yl)propyl 1-(dimethyl-carbamoyl)piperidine-4-carboxylate], the IC50 was under 0.1 µM. For `CCn1nc(CCCOC(=O)c2ccc(F)cc2C(F)(F)F)c2c1C(=O)NCC1(CCOCC1)C2` [Example 71, 3-(1-ethyl-8-oxo-spiro[6,7-dihydro-4H-pyrazolo[3,4-c]azepine-5,4′-tetrahydro-pyran]-3-yl)propyl 4-fluoro-2-(trifluoromethyl)benzoate], the IC50 is under 0.1 µM.
